The target in data set [1] is Protein-arginine deiminase type-2 (Homo sapiens, UniProt Q9Y2J8). Nature of the data set: Inhibition of PAD2 (unknown origin) using Nalpha-benzoyl-L-arginine ethyl ester as substrate preincubated for 60 mins followed by substrate addition and measured after 90 mins by colorimetric analysis.
Data set [2] has as its system MDA-MB-468. Nature of the data set: Antiproliferative activity against human MDA-MB-468 cells assessed as inhibition of cell growth incubated for 48 hrs by MTT assay. Type of data set: functional, cell-based. Conditions: MDA-MB-468, 48 h. In general terms: Tetrazolium assays rely on reduction of a dye to a coloured formazan, in cell work by metabolically active cells.

The nature of data set [3]: Cytotoxicity against human MCF-10A cells assessed as inhibition of cell growth incubated for 48 hrs by MTT assay. Type of data set: toxicity, cell-based.
The target of data set [4] is Protein-arginine deiminase type-4 (Homo sapiens, UniProt Q9UM07). Nature of the data set: Inhibition of PAD4 (unknown origin) using Nalpha-benzoyl-L-arginine ethyl ester as substrate preincubated for 60 mins followed by substrate addition and measured after 90 mins by colorimetric analysis.
Chain of Protein-arginine deiminase type-4 (Q9UM07 whole entry): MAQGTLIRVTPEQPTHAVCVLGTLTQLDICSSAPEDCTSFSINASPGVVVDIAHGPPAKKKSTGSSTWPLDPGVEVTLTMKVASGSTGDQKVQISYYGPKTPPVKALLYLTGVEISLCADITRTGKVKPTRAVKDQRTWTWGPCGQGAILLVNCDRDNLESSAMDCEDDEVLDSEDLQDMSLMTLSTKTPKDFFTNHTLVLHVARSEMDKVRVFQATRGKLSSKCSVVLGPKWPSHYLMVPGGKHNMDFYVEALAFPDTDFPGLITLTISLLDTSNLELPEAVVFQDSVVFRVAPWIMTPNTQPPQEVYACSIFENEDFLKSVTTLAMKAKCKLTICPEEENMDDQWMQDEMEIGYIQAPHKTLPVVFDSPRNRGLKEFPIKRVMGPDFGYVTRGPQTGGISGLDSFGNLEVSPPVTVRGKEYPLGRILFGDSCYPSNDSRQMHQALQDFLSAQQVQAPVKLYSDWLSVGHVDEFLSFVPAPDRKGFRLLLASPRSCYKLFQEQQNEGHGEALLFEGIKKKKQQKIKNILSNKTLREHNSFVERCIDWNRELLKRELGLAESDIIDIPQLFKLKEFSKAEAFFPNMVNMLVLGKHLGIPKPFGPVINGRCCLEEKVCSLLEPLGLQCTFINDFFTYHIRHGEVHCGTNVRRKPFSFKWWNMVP
The test system of data set [5] is 4T1. Briefly: Antiproliferative activity against mouse 4T1 cells assessed as inhibition of cell growth incubated for 48 hrs by MTT assay. Type of data set: functional, cell-based. The note with it: 4T1, 48 h.

Our source for the IC50 values is ChEMBL document CHEMBL5506043, “A β-Carboline Derivate PAD4 Inhibitor Reshapes Neutrophil Phenotype and Improves the Tumor Immune Microenvironment against Triple-Negative Breast Cancer” (J Med Chem, 2024).

SMILES strings stand for the structures. pIC50: −log10 of the molar value. A value given as a limit tells only on which side of the number the result lay.

Chain of Protein-arginine deiminase type-2 (Q9Y2J8 whole entry): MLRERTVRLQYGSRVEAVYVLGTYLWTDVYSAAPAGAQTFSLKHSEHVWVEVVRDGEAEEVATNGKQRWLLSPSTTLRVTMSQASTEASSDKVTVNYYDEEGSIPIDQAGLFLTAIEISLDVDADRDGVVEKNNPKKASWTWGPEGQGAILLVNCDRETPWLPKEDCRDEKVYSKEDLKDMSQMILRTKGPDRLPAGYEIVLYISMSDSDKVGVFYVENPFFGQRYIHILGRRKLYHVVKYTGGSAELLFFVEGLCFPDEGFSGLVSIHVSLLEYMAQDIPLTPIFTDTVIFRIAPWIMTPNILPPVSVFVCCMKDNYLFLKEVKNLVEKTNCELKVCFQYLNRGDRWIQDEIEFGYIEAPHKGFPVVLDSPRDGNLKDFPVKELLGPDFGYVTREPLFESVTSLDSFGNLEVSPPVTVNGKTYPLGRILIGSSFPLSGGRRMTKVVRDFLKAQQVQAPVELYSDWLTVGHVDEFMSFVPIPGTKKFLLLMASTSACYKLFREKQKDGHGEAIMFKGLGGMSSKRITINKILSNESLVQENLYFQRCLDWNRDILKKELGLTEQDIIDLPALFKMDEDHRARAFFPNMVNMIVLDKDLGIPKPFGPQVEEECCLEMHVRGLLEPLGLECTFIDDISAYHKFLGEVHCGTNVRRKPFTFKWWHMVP

The term pIC50 denotes the negative decadic logarithm of the IC50, by convention in mol/L. What is called IC50 is the concentration that inhibits the measured activity by half. For the compound `N=C(CCl)NCCC[C@H](NC(=O)c1cc2c([nH]c3ccccc32)c(-c2ccc(F)cc2)n1)C(=O)NCc1ccccc1`, the pIC50 was 5.53 in data set [1], 5.40 in data set [2], 5.99 in data set [4] and 4.96 in data set [5]. In data set [3], the IC50 at 48 h was 7.07 µM.
`N=C(CCl)NCCC[C@H](NC(=O)c1cc2c([nH]c3ccccc32)c(-c2cccs2)n1)C(=O)NCc1ccccc1`: the pIC50 in data set [1] was 5.42; in data set [2] it was 5.40; in data set [4] it was 5.88; in data set [5], 5.12. Besides, in data set [3], the IC50 at 48 h was determined as 8.03 µM.
The corresponding values for `CCCCCCCCCc1nc(C(=O)N[C@@H](CCCNC(=N)CCl)C(=O)NCc2ccccc2)cc2c1[nH]c1ccccc12` are 4.77, 5.14, 4.85, 4.91 and 14.3 µM.
The like results for `CCC(CC)c1nc(C(=O)N[C@@H](CCCNC(=N)CCl)C(=O)NCc2ccccc2)cc2c1[nH]c1ccccc12` were, in that order, 5.87, 5.43, 5.96, 5.25 and 3.82 µM.
For the compound `N=C(CCl)NCCC[C@H](NC(=O)c1c[nH]c2ccccc12)C(=O)NCc1ccccc1`, the pIC50 in data set [1] is 6.46; in data set [2], 3.93; in data set [4], 6.15; in data set [5], 4.00. Also, the IC50 at 48 h in data set [3] came to 120 µM.
The corresponding values for `N=C(CCl)NCCC[C@H](NC(=O)[C@@H]1Cc2ccccc2CN1)C(=O)NCc1ccccc1` are 4.94, less than 4.00, 5.19, 4.13 and greater than 100 µM.
The like results for `Cn1c(-c2nc(C(=O)N[C@@H](CCCNC(=N)CCl)C(=O)NCc3ccccc3)cc3c2[nH]c2ccccc23)nc2ccccc21` were, in that order, less than 5.00, 5.32, less than 5.00, 5.42 and 5.3 µM.
Consider `N=C(CCl)NCCC[C@H](NC(=O)c1ccc2nccnc2c1)C(=O)NCc1ccccc1`, for which the pIC50 was 5.64 in data set [1], 4.16 in data set [2], 5.58 in data set [4] and 4.34 in data set [5]. Moreover, the IC50 at 48 h in data set [3] was 54 µM.
As for `N=C(CCl)NCCC[C@H](NC(=O)c1cc2c([nH]c3ccccc32)c(-c2ccc3ccccc3n2)n1)C(=O)NCc1ccccc1`, the pIC50 in data set [1] was less than 5.00; in data set [2], 5.52; in data set [4], 4.88; in data set [5] it was 6.06. In data set [3], the IC50 at 48 h was determined as 2.77 µM.
The corresponding values for `N=C(CCl)NCCC[C@H](NC(=O)c1nc2ccccc2[nH]1)C(=O)NCc1ccccc1` are 5.27, 4.54, 5.53, 4.14 and 29.7 µM.
The like results for `N=C(CCl)NCCC[C@H](NC(=O)c1cc2c([nH]c3ccccc32)c(-c2ccncc2)n1)C(=O)NCc1ccccc1` were, in that order, 5.33, 4.07, 5.46, 4.34 and 83.8 µM.
The like results for `N=C(CCl)NCCC[C@H](NC(=O)c1cc2c([nH]c3ccccc32)c(-c2ncc[nH]2)n1)C(=O)NCc1ccccc1` were, in that order, 4.97, 5.16, 5.51, 5.18 and 12.4 µM.
Take `CC(C)Cc1nc(C(=O)N[C@@H](CCCNC(=N)CCl)C(=O)NCc2ccccc2)cc2c1[nH]c1ccccc12`: the pIC50 in data set [1] was 5.99; in data set [2], 5.35; in data set [4], 6.15; in data set [5], 5.00. The half-inhibitory concentration (IC50) at 48 h in data set [3] was 5.16 µM.
The like results for `N=C(CCl)NCCC[C@H](NC(=O)c1cc2c([nH]c3ccccc32)c(-c2nccc3ccccc23)n1)C(=O)NCc1ccccc1` were, in that order, less than 5.00, 5.44, 4.85, 5.89 and 3.03 µM.
The like results for `COC(Cc1nc(C(=O)N[C@@H](CCCNC(=N)CCl)C(=O)NCc2ccccc2)cc2c1[nH]c1ccccc12)OC` were, in that order, 6.00, 5.10, 6.02, 4.70 and 11 µM.
Consider `CC(C)(C)c1nc(C(=O)N[C@@H](CCCNC(=N)CCl)C(=O)NCc2ccccc2)cc2c1[nH]c1ccccc12`, for which the pIC50 in data set [1] was 5.36; in data set [2], 5.37; in data set [4], 5.92; in data set [5], 5.12. In data set [3], the IC50 at 48 h turned out to be 3.08 µM.
The like results for `N=C(CCl)NCCC[C@H](NC(=O)c1ccc2nc[nH]c2c1)C(=O)NCc1ccccc1` were, in that order, 5.68, less than 4.00, 5.94, less than 4.00 and greater than 100 µM.
The like results for `COc1cc(OC)c(-c2nc(C(=O)N[C@@H](CCCNC(=N)CCl)C(=O)NCc3ccccc3)cc3c2[nH]c2ccccc23)c(OC)c1` were, in that order, 5.79, 5.21, 5.67, 4.80 and 16.9 µM.
For the compound `CCCCCc1nc(C(=O)N[C@@H](CCCNC(=N)CCl)C(=O)NCc2ccccc2)cc2c1[nH]c1ccccc12`, the pIC50 was 5.44 in data set [1], 5.13 in data set [2], 5.76 in data set [4] and 5.09 in data set [5]. Also, in data set [3], the IC50 at 48 h worked out at 8.01 µM.
The corresponding values for `N=C(CCl)NCCC[C@H](NC(=O)c1cc2c([nH]c3ccccc32)c(-c2ccc3ccccc3c2)n1)C(=O)NCc1ccccc1` are less than 5.00, 5.37, 5.49, 5.24 and 9.73 µM.
The like results for `N=C(CCl)NCCC[C@H](NC(=O)c1ccc2[nH]ccc2c1)C(=O)NCc1ccccc1` were, in that order, 5.84, 4.21, 6.10, 4.38 and 63.6 µM.
On to `N=C(CCl)NCCC[C@H](NC(=O)c1cc2c([nH]c3ccccc32)c(-c2ccc(Cl)cc2)n1)C(=O)NCc1ccccc1`, for which the negative-log IC50 (pIC50) is 5.39 in data set [1], 5.39 in data set [2], 5.95 in data set [4] and 5.03 in data set [5]. The IC50 at 48 h in data set [3] was determined as 6.35 µM.
Regarding `CC(C)c1ccc(-c2nc(C(=O)N[C@@H](CCCNC(=N)CCl)C(=O)NCc3ccccc3)cc3c2[nH]c2ccccc23)cc1`, the pIC50 in data set [1] was less than 5.00; in data set [2], 5.53; in data set [4], 5.16; in data set [5], 5.37. The IC50 at 48 h in data set [3] worked out at 3.52 µM.
The like results for `Cc1nc(C(=O)N[C@@H](CCCNC(=N)CCl)C(=O)NCc2ccccc2)cc2c1[nH]c1ccccc12` were, in that order, 6.08, 5.17, 6.12, 4.72 and 18.2 µM.
The corresponding values for `COc1cccc(OC)c1-c1nc(C(=O)N[C@@H](CCCNC(=N)CCl)C(=O)NCc2ccccc2)cc2c1[nH]c1ccccc12` are 5.82, 5.23, 5.72, 4.86 and 14.7 µM.
The corresponding values for `N=C(CCl)NCCC[C@H](NC(=O)c1cc2c([nH]c3ccccc32)c(-c2ccc(O)cc2)n1)C(=O)NCc1ccccc1` are 5.65, 4.52, 5.97, 4.64 and 51.8 µM.
As to `N=C(CCl)NCCC[C@H](NC(=O)c1cc2c([nH]c3ccccc32)c(C2CCCCC2)n1)C(=O)NCc1ccccc1`, the pIC50 in data set [1] was 5.63; in data set [2], 5.54; in data set [4], 5.95; in data set [5], 5.26. The half-maximal inhibitory concentration (IC50) at 48 h in data set [3] was found to be 2.76 µM.
On to `N=C(CCl)NCCC[C@H](NC(=O)c1cc2c([nH]c3ccccc32)c(-c2nc3ccccc3[nH]2)n1)C(=O)NCc1ccccc1`, for which the pIC50 in data set [1] was less than 5.00; in data set [2], 5.50; in data set [4], 5.03; in data set [5], 5.84. The IC50 at 48 h in data set [3] stood at 3 µM.
The corresponding values for `N=C(CCl)NCCC[C@H](NC(=O)c1cc2c([nH]c3ccccc32)c(-c2cc3ccccc3cn2)n1)C(=O)NCc1ccccc1` are less than 5.00, 5.37, 4.62, 5.83 and 4.02 µM.
The corresponding values for `COc1ccc(-c2nc(C(=O)N[C@@H](CCCNC(=N)CCl)C(=O)NCc3ccccc3)cc3c2[nH]c2ccccc23)cc1` are 5.52, 5.38, 5.77, 5.13 and 6.27 µM.
The corresponding values for `N=C(CCl)NCCC[C@H](NC(=O)c1cc2c(cn1)[nH]c1ccccc12)C(=O)NCc1ccccc1` are 5.56, 4.84, 5.75, 4.63 and 29.4 µM.
As to `Cc1ccc(-c2nc(C(=O)N[C@@H](CCCNC(=N)CCl)C(=O)NCc3ccccc3)cc3c2[nH]c2ccccc23)cc1`, the pIC50 in data set [1] is less than 5.00; in data set [2] it was 5.16; in data set [4], 5.00; in data set [5], 5.10. Further, in data set [3], the IC50 at 48 h came out at 17.5 µM.
